The compounds below were run against T1, Squalene synthase (Rattus norvegicus, UniProt Q02769) (assay: Tested in vitro for the inhibition of Squalene synthase activity, measured using juvenile male rat liver microsomes).
T1 sequence (Q02769 whole entry): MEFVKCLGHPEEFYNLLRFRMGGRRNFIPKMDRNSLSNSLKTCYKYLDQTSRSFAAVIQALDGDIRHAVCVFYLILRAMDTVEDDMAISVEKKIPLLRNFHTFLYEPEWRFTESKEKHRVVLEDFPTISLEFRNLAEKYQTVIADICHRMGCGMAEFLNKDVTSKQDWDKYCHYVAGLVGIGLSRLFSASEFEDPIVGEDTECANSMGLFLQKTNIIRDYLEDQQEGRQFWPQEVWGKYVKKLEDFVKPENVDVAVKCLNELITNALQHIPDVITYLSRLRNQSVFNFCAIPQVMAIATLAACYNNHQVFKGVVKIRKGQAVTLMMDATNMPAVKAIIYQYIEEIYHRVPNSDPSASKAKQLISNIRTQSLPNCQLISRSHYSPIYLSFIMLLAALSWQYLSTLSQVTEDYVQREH
Design: species or system Microsome

Row | IC50 [nM] | Structure (SMILES)
1 | 130 | CC[C@H](C)C[C@H](C)CCC(=O)O[C@@H]1[C@@H](O)[C@@]2(CCC(C)C(=O)[C@@H](C)Cc3ccccc3)O[C@H](C(=O)O)[C@@](O)(C(=O)O)[C@]1(C(=O)O)O2 (single isomer, unassigned; isomer 2)
2 | 63 | CC[C@H](C)C[C@H](C)CCC(=O)O[C@@H]1[C@@H](O)[C@@]2(CC/C(C)=C/[C@@H](C)Cc3ccccc3)O[C@H](C(=O)O)[C@@](O)(C(=O)O)[C@]1(C(=O)O)O2
3 | 5 | CC[C@H](C)C[C@H](C)CCC(=O)O[C@@H]1[C@@H](O)[C@@]2(CCC(=O)[C@H](O)[C@@H](C)Cc3ccccc3)O[C@H](C(=O)O)[C@@](O)(C(=O)O)[C@]1(C(=O)O)O2
4 | 17 | CC[C@H](C)C[C@H](C)CCC(=O)O[C@@H]1[C@@H](O)[C@@]2(C/C=C(\C)[C@H](O)[C@@H](C)Cc3ccccc3)O[C@H](C(=O)O)[C@@](O)(C(=O)O)[C@]1(C(=O)O)O2
5 | 16 | CC[C@H](C)C[C@H](C)CCC(=O)O[C@@H]1[C@@H](O)[C@@]2(CCC(C)C(=O)[C@@H](C)Cc3ccccc3)O[C@H](C(=O)O)[C@@](O)(C(=O)O)[C@]1(C(=O)O)O2 (stereo in doubt)
6 | 4 | CC[C@H](C)C[C@H](C)CCC(=O)O[C@@H]1[C@@H](O)[C@@]2(CCC(O)[C@H](O)[C@@H](C)Cc3ccccc3)O[C@H](C(=O)O)[C@@](O)(C(=O)O)[C@]1(C(=O)O)O2 (stereo partly drawn)
7 | 2 | C=C(CC[C@]12O[C@H](C(=O)O)[C@@](O)(C(=O)O)[C@](C(=O)O)(O1)[C@H](OC(=O)CC[C@@H](C)C[C@@H](C)CC)[C@H]2O)[C@H](O)[C@@H](C)Cc1ccccc1

The compounds below were run on Rattus norvegicus (assay: Tested for daily dose at which compound shows 50% reduction in serum cholesterol levels after oral administration).
Type: functional

Row | Structure (SMILES) | Dose [mg/kg]
8 | C=C(CC[C@]12O[C@H](C(=O)O)[C@@](O)(C(=O)O)[C@](C(=O)O)(O1)[C@H](OC(=O)/C=C/[C@@H](C)C[C@@H](C)CC)[C@H]2O)[C@H](OC(C)=O)[C@@H](C)Cc1ccccc1 | 10

What follows are compounds tested against T1, Squalene synthase (assay: Inhibition of Squalene synthase activity in juvenile male rat liver microsomes).
Design: species or system Microsome

Row | IC50 [nM] | Structure (SMILES)
9 | 152 | CC[C@H](C)C[C@H](C)CCC(=O)O[C@@H]1[C@@H](O)[C@@]2(CCCC(=O)CCCc3ccccc3)O[C@H](C(=O)O)[C@@](O)(C(=O)O)[C@]1(C(=O)O)O2
10 | 470 | CC[C@H](C)C[C@H](C)CCC(=O)O[C@@H]1[C@@H](O)[C@@]2(CCC(C)=O)O[C@H](C(=O)O)[C@@](O)(C(=O)O)[C@]1(C(=O)O)O2
11 | 48 | CC[C@H](C)C[C@H](C)CCC(=O)O[C@@H]1[C@@H](O)[C@@]2(CCC(C)C(=O)CCc3ccccc3)O[C@H](C(=O)O)[C@@](O)(C(=O)O)[C@]1(C(=O)O)O2 (stereo partly drawn)
12 | > 500 | CCCC(=O)CCC[C@]12O[C@H](C(=O)O)[C@@](O)(C(=O)O)[C@](C(=O)O)(O1)[C@H](OC(=O)CC[C@@H](C)C[C@@H](C)CC)[C@H]2O
13 | 29 | CC[C@H](C)C[C@H](C)CCC(=O)O[C@@H]1[C@@H](O)[C@@]2(CCCC(=O)C(C)Cc3ccccc3)O[C@H](C(=O)O)[C@@](O)(C(=O)O)[C@]1(C(=O)O)O2 (stereo partly drawn)
14 | > 500 | CC[C@H](C)C[C@H](C)CCC(=O)O[C@@H]1[C@@H](O)[C@@]2(CCO)O[C@H](C(=O)O)[C@@](O)(C(=O)O)[C@]1(C(=O)O)O2
15 | > 500 | CC[C@H](C)C[C@H](C)CCC(=O)O[C@@H]1[C@@H](O)[C@@]2(CCCC(=O)Cc3ccccc3)O[C@H](C(=O)O)[C@@](O)(C(=O)O)[C@]1(C(=O)O)O2
16 | > 500 | CCCCCCC(=O)CCC[C@]12O[C@H](C(=O)O)[C@@](O)(C(=O)O)[C@](C(=O)O)(O1)[C@H](OC(=O)CC[C@@H](C)C[C@@H](C)CC)[C@H]2O
17 | 56 | CC[C@H](C)C[C@H](C)CCC(=O)O[C@@H]1[C@@H](O)[C@@]2(CCCC(=O)CCc3ccccc3)O[C@H](C(=O)O)[C@@](O)(C(=O)O)[C@]1(C(=O)O)O2
18 | 5 | C=C(CC[C@]12O[C@H](C(=O)O)[C@@](O)(C(=O)O)[C@](C(=O)O)(O1)[C@H](OC(=O)/C=C/[C@@H](C)C[C@@H](C)CC)[C@H]2O)[C@H](O)[C@@H](C)Cc1ccccc1
